Measured values published in ChEMBL document CHEMBL4251692, “Dual GSK-3β/AChE Inhibitors as a New Strategy for Multitargeting Anti-Alzheimer's Disease Drug Discovery” (ACS Med Chem Lett, 2018).
The source made the active and inactive calls. No cut-off for these calls is given here.

How the values were obtained:
SH-SY5Y = assay: Cytotoxicity against human SH-SY5Y cells assessed as reduction in cell viability after 48 hrs by MTT assay; format: cell-based
[1] = target: Glycogen synthase kinase-3 beta (Homo sapiens, UniProt P49841); assay: Inhibition of recombinant human full length N-terminal GST-tagged GSK-3beta expressed in Sf9 insect cells using prephosphorylated polypeptide as substrate after 30 mins by kinase-Glo reagent based luminescence assay
Cholinesterase [2] = target: Cholinesterase (Homo sapiens, UniProt P06276); assay: Inhibition of human BuChE using butyrylthiocholine iodide as substrate incubated for 20 mins followed by substrate addition measured after 2 mins by Ellman's method
Acetylcholinesterase [3] = target: T1, Acetylcholinesterase (Homo sapiens, UniProt P22303); assay: Inhibition of human AChE using acetylthiocholine iodide as substrate incubated for 20 mins followed by substrate addition measured after 2 mins by Ellman's method
Cholinesterase [4] = target: Cholinesterase (Equus caballus, UniProt P81908); assay: Inhibition of horse serum BuChE using butyrylthiocholine iodide as substrate incubated for 5 mins followed by substrate addition measured after 2 mins by Ellman's method
Mus musculus = assay: Cognition enhancing effect in scopolamine-induced ICR mouse assessed as decrease in distance to target at 15 mg/kg, po administered 30 mins prior to scopolamine injection for 10 consecutive days followed by testing on day 11 post 30 mins scopolamine treatment by Morris water maze test; format: functional, organism-based
[5] = target: Glycogen synthase kinase-3 beta (Mus musculus) (UniProt Q9WV60); assay: Inhibition of GSK-3beta in mouse N2A cells assessed as reduction in tau hyperphosphorylation at Ser396 residues at 10 uM after 6 hrs by Western blot analysis; format: cell-based
HepG2 = assay: Cytotoxicity against human HepG2 cells assessed as reduction in cell viability after 24 hrs by MTT assay; format: cell-based; details: HepG2, 24 h
N2a = assay: Effect on total tau protein level in mouse N2A cells at 10 to 30 uM after 6 hrs by Western blot analysis; format: cell-based
Acetylcholinesterase [6] = target: T1, Acetylcholinesterase; assay: Mixed/non-competitive inhibition of human AChE using varying levels of acetylthiocholine iodide as substrate at 1 to 20 nM incubated for 20 mins by Lineweaver-Burk plot analysis
Homo sapiens = species on record: Homo sapiens; assay: Selectivity index, ratio of IC50 for human AChE to IC50 for human BuChE

Chain of Glycogen synthase kinase-3 beta (P49841 whole entry): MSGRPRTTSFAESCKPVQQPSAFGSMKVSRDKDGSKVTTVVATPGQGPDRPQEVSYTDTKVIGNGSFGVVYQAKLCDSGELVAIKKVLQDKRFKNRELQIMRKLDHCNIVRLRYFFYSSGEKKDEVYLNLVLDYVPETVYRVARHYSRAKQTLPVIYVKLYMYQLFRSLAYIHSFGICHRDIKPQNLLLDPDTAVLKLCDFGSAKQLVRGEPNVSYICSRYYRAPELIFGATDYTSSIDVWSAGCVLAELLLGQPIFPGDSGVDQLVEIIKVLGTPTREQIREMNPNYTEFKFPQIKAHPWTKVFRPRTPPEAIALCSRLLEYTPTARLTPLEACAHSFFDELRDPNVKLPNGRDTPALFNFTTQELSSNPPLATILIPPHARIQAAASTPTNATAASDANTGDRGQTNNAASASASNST
T1 sequence (P22303 whole entry): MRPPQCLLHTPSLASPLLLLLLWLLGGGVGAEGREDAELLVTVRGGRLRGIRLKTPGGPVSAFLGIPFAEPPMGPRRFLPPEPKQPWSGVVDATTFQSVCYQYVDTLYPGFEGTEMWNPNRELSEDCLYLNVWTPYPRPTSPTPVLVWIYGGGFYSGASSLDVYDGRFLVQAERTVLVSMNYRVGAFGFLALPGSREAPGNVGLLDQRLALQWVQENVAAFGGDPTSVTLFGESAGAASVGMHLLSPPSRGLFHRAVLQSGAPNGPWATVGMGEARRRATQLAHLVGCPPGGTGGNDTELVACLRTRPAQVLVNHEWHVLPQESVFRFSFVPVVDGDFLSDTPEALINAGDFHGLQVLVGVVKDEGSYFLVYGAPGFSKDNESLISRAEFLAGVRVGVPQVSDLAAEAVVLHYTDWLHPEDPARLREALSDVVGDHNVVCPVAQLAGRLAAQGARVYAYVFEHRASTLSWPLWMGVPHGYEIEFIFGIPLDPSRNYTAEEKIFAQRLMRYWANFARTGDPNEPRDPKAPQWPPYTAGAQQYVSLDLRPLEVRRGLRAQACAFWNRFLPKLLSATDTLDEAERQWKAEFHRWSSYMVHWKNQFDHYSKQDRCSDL
Chain of Cholinesterase (Homo sapiens, UniProt P06276) (P06276 whole entry): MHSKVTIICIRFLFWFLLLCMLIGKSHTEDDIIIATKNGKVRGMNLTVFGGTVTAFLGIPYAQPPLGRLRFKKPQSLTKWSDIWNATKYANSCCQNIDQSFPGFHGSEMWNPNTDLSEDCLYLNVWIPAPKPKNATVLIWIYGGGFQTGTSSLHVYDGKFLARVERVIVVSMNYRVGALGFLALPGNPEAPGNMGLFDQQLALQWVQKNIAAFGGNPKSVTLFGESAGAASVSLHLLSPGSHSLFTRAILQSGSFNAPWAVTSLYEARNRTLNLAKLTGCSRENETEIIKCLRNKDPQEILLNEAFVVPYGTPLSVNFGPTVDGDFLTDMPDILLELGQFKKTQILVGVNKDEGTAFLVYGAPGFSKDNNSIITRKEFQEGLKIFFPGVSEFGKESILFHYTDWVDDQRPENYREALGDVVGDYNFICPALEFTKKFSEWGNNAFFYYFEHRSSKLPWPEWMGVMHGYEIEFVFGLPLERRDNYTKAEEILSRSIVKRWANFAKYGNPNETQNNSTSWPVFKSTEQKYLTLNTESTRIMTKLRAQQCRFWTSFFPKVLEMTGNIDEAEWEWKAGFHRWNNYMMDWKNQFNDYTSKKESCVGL
Chain of Cholinesterase (Equus caballus, UniProt P81908) (P81908 whole entry): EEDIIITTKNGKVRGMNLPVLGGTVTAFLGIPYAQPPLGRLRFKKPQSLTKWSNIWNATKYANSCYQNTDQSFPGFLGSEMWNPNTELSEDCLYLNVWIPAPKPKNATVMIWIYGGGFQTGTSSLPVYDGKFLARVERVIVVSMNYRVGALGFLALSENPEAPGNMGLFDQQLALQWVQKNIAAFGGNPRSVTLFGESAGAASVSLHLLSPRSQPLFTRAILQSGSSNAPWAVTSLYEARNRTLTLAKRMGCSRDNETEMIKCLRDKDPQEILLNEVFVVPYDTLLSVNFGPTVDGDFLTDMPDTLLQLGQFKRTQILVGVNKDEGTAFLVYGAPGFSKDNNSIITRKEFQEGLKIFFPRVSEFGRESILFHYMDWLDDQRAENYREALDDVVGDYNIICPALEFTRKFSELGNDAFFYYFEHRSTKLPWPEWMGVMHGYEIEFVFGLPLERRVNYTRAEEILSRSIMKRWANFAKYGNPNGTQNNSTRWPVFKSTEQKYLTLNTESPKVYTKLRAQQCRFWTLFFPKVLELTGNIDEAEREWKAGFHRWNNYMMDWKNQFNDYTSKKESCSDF
Chain of Glycogen synthase kinase-3 beta (Mus musculus) (Q9WV60 whole entry, looked up): as the sequence (P49841 whole entry) above, with T390P, T392A, A400T, T402A counted along it

| SMILES | IC50 (SH-SY5Y) | IC50 [1] | IC50 (Cholinesterase [2]) | IC50 (Acetylcholinesterase [3]) | IC50 (Cholinesterase [4]) | Activity (Mus musculus) | inhibition [5] | IC50 (HepG2) | Activity (N2a) | inhibition (Acetylcholinesterase [6]) | Ratio IC50 (Homo sapiens) |
| --- | --- | --- | --- | --- | --- | --- | --- | --- | --- | --- | --- |
| COc1nc(-c2ccnc(NC(=O)C3CC3)c2)sc1C(=O)NCCNc1c2c(nc3ccccc13)CCCC2 | 6300 nM | 68 nM | 51 nM | 6.3 nM | – | – | – | – | – | – | – |
| COc1ccc2nc3c(c(NCCCNC(=O)c4sc(-c5ccnc(NC(=O)C6CC6)c5)nc4OC)c2c1)CCCC3 | 2900 nM | 65 nM | – | 38 nM | 2300 nM | – | – | – | – | – | – |
| CCOC(=O)c1sc(-c2ccnc(NC(=O)C3CC3)c2)nc1OCCNc1c2c(nc3ccccc13)CCCC2 | 7100 nM | 180 nM | 610 nM | 310 nM | – | – | – | – | – | – | – |
| O=C(O)c1sc(-c2ccnc(NC(=O)C3CC3)c2)nc1OCCNc1c2c(nc3ccccc13)CCCC2 | 21000 nM | 270 nM | 450 nM | 580 nM | – | – | – | – | – | – | – |
| COc1nc(-c2ccnc(NC(=O)C3CC3)c2)sc1C(=O)NCCCNc1c2c(nc3cc(Cl)ccc13)CCCC2 | 3100 nM | 98 nM | – | 3.6 nM | 290 nM | – | – | – | – | – | – |
| COc1nc(-c2ccnc(NC(=O)C3CC3)c2)sc1C(=O)NCCCCCCNc1c2c(nc3ccccc13)CCCC2 | 30000 nM | 18 nM | 100 nM | 22 nM | – | Active | – | – | – | – | – |
| NC(=O)c1sc(-c2ccnc(NC(=O)C3CC3)c2)nc1OCCNc1c2c(nc3ccccc13)CCCC2 | 19000 nM | 34 nM | 150 nM | 300 nM | – | – | – | – | – | – | – |
| COc1nc(-c2ccnc(NC(=O)C3CC3)c2)sc1C(=O)NCCNc1c2c(nc3cc(Cl)ccc13)CCCC2 | 2300 nM | 63 nM | – | 2.1 nM | 410 nM | – | – | – | – | – | – |
| COc1nc(-c2ccnc(NC(=O)C3CC3)c2)sc1C(=O)NCCCNc1c2c(nc3ccccc13)CCCC2 | 18000 nM | 66 nM | 260 nM | 6.4 nM | – | Active | Active | 35000 nM | Non-Toxic | Active | – |
| COC(=O)c1sc(-c2ccnc(NC(=O)C3CC3)c2)nc1OCCNc1c2c(nc3ccccc13)CCCC2 | 13000 nM | 99 nM | 28 nM | 130 nM | – | Active | – | – | – | – | 4.6 |
| COc1ccc2nc3c(c(NCCNC(=O)c4sc(-c5ccnc(NC(=O)C6CC6)c5)nc4OC)c2c1)CCCC3 | 8900 nM | 83 nM | – | 23 nM | 2100 nM | – | – | – | – | – | – |
